The values below come from patent US10370425B2, “Peptide antagonists of the calcitonin CGRP family of peptide hormones and their use” (priority 2012, dated 2019).

Structures are written as SMILES. Positions of bridges follow the written chain, without caps; N, C: chain ends. Residues, ends and D or L forms follow the SMILES beside them.

This assay deals with T1, amylin receptor, AMY1, a CT (calcitonin) receptor/RAMP1 (receptor-activity modifying protein) complex (Homo sapiens, UniProt O60894+P30988).
T1 construct: host or cells: CHO-K1/AMY1/Gα15
Kind of assay: Calcium flux assay (FLIPR Calcium 4) of inhibition of α-CGRP stimulation in CHO-K1/AMY1/Gα15 cells. The assay is classed as cell-based. Conditions: at maximal test concentration (series starts with 1 μM); CHO-K1/AMY1/Gα15 cells stimulated with 32 nM (EC80) α-CGRP; n = 2; read-out: % Inhibition @ Maximal concentration (Mean +/− SD, n = 2). The procedure:
Using a calcium flux assay, the dose-dependent inhibitory response of peptide antagonists of the present invention on an amylin receptor, AMY1, a CT (calcitonin) receptor/RAMP1 (receptor-activity modifying protein) complex was determined. The recombinant cell line CHO-K1/AMY1/Gα15 (GenScript, Piscataway, N.J., Catalog No. M00475) was employed in the assay. Peptide antagonist activities were tested, in duplicate, at five different concentrations, starting with 1 μM and serially diluted five-fold, in DMSO. AC187 (SEQ ID NO: 55), a known amylin receptor antagonist (available for example from Tocris Bioscience, Minneapolis, Minn., Catalog No. 3419) was used as a positive control in the assays, and human α-CGRP, a known amylin receptor agonist (SEQ ID NO:56) , (available for example from Tocris Bioscience, Minneapolis, Minn., Catalog No. 3012) was used as a positive control in the assays. The FLIPR® Calcium 4 Assay Kit (Molecular Devices, Sunnyvale, Calif.) was used.
Human α-CGRP having the amino acid sequence, NH2-[…]-NH2 (SEQ ID NO:56) and AC187 having the sequence […] (SEQ ID NO: 55) were employed as negative and positive controls, respectively. Stock solutions were further diluted in HBSS-HEPES buffer to make 5×final control solutions.
CHO-K1/AMY1/Gα15 cells were seeded in a 384-well black wall, clear bottom plate at a density of 20,000 cells/well in 20 μL of growth medium 20 hours prior to the day of the experiment and maintained at 37° C./5% CO2.
Per the assay kit protocol, dye-loading solution (at 2×final concentration) was added into the assay plate, 20 μL per well. Compound solution (at 5 ×final concentration) was added into the assay plate, 10 uL per well. The assay plate was placed into a 37° C. incubator for 1 hour, then left for 15 min at RT. The agonist plate (at 5×EC80 concentration) was placed in Source 2. The total reading time was 120 sec. The agonist was added after 20 seconds reading of the baseline and the fluorescence signal was captured for another 100 seconds (21 s to 120 s).
In screening, cells stimulated with assay buffer were chosen as the background; cells stimulated with agonist (at […] concentration) were chosen as the negative control.
Data were recorded by ScreenWorks (version 3.1) as FMD files and stored on the GenScript computer network for off-line analysis. Data acquisition and analyses was performed using ScreenWorks (version 3.1) program and exported to Excel. The average value of 20 (1 s to 20 s) seconds reading was calculated as the baseline reading and the relative fluorescent units (ΔRFU) intensity values were calculated with the maximal fluorescent units (21 s to 120 s) subtracting the average value of baseline reading.
The IC50 value of AC187 was 8 μM. The inhibitory activity of the tested peptide antagonists was normalized with the negative control (AC187) and reported as % Inhibition, calculated from the following equation: % Inhibition=(ΔRFUcompound−ΔRFUBackground)/(ΔRFUNegative control−ΔRFUBackground) * 100% Inhibition was then plotted along the Y-axis, with the test concentrations as indicated on the X-axis. The peptides were tested at indicated concentrations and stimulated with 32 nM (EC80) α-CGRP (Mean +/− SD, n=2).
(A change in cytosolic calcium serves as a functional read-out for many receptors and channels.)

T1 sequence (P30988 25-474): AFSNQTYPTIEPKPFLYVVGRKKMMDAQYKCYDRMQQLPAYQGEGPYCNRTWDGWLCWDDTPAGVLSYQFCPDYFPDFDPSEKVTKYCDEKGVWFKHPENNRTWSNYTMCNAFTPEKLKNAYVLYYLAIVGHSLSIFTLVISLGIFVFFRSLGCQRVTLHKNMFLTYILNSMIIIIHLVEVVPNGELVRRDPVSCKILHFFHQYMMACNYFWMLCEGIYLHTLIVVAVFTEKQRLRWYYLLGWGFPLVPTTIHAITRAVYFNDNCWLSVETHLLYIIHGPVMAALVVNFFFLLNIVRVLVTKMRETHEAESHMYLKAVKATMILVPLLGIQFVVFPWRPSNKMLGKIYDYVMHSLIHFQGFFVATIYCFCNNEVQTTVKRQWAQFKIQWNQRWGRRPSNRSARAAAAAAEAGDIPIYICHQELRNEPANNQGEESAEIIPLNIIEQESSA
T1 sequence (O60894 27-148): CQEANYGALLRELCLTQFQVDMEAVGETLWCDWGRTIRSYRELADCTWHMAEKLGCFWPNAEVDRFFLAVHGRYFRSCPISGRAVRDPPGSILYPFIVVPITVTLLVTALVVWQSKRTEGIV

`CC(C)C[C@H](NC(=O)[C@H](CCCNC(=N)N)NC(=O)CNC(=O)[C@H](CC(C)C)NC(=O)[C@@H](NC(=O)[C@@H]1CSSC[C@H](NC(=O)[C@H](C)N)C(=O)N[C@@H](CC(=O)O)C(=O)N[C@@H]([C@@H](C)O)C(=O)N[C@@H](C)C(=O)N[C@@H](CO)C(=O)N1)C(C)C)C(=O)N[C@@H](CO)C(=O)N[C@@H](CCC(N)=O)C(=O)N[C@@H](CCC(=O)O)C(=O)N[C@@H](CC(C)C)C(=O)N[C@@H](Cc1c[nH]cn1)C(=O)N[C@@H](CCCNC(=N)N)C(=O)N[C@@H](CC(C)C)C(=O)N[C@@H](CCC(N)=O)C(=O)N[C@H](C(=O)N[C@@H](Cc1ccc(O)cc1)C(=O)N1CCC[C@H]1C(=O)N[C@@H](CCCNC(=N)N)C(=O)N[C@H](C(=O)N[C@@H](CC(N)=O)C(=O)N[C@H](C(=O)NCC(=O)N[C@@H](CO)C(=O)N[C@@H](CCCCN)C(=O)N[C@@H](C)C(=O)N[C@@H](Cc1ccccc1)C(N)=O)C(C)C)[C@@H](C)O)[C@@H](C)O` [compound 2] (H-ACDTASCVLGRLSQELHRLQTYPRTNVGSKAF-NH2; disulfide 2-7 (inferred)): the inhibition at 1 µM is 96.5%.
